According to ChEMBL document CHEMBL1201862, “PubChem BioAssay data set” (2004):
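96-well plates; 48 h exposure; 5 concentrations. Endpoints by linear interpolation between flanking doses. Not reached: highest tested concentration assigned. GI50: concentration for 50% inhibition of growth.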 The source made the active and inactive calls. Cut-off read from the data, not from the text of the source: active = GI50 up to about 1.1 µM and inactive = higher.

Key:
Assay in all cases: DTP human tumour cell line panel, 48 h
[1] = tested on: A549
[2] = tested on: HCT-116
[3] = tested on: HCT-15
[4] = tested on: HOP-62
[5] = tested on: MDA-MB-435
[6] = tested on: MDA-N
[7] = tested on: NCI-H23
[8] = tested on: NCI/ADR-RES
[9] = tested on: OVCAR-3
[10] = tested on: OVCAR-8
[11] = tested on: RXF 393
[12] = tested on: SK-MEL-28
[13] = tested on: SNB-19
[14] = tested on: TK-10
[15] = tested on: UO-31
[16] = tested on: IGROV-1
[17] = tested on: MOLT-4
[18] = tested on: NCI-H522
[19] = tested on: SF-539

| Structure (SMILES) | GI50 [1] | GI50 [2] | GI50 [3] [µM] | GI50 [4] | GI50 [5] | GI50 [6] | GI50 [7] | GI50 [8] | GI50 [9] | GI50 [10] | GI50 [11] | GI50 [12] | GI50 [13] | GI50 [14] | GI50 [15] | GI50 [16] | GI50 [17] | GI50 [18] | GI50 [19] |
| --- | --- | --- | --- | --- | --- | --- | --- | --- | --- | --- | --- | --- | --- | --- | --- | --- | --- | --- | --- |
| C=CCOC(OCC=C)/C(Br)=C/C | > 100 µM (inactive) | 13.5 µM (inactive) | 24 | > 100 µM (inactive) | 26.9 µM (inactive) | 37 µM (inactive) | 31 µM (inactive) | 31 µM (inactive) | 47.1 µM (inactive) | 17.7 µM (inactive) | 29.2 µM (inactive) | > 100 µM (inactive) | > 100 µM (inactive) | > 100 µM (inactive) | 34.9 µM (inactive) |  |  |  |  |
| COc1ccc(C2=C(Cl)C(=O)N(c3ccc(OC)cc3OC)C(=O)C2(Cl)Cl)cc1 | > 100 µM (inactive) | 15.5 µM (inactive) | 14.2 | 18.5 µM (inactive) | 16.9 µM (inactive) |  | 15.4 µM (inactive) | 14.5 µM (inactive) | 12.5 µM (inactive) | 19.5 µM (inactive) | 17.9 µM (inactive) | 17 µM (inactive) | 56.6 µM (inactive) | 18.9 µM (inactive) | 14.8 µM (inactive) | 18.5 µM (inactive) | 5.07 µM (inactive) | 14.3 µM (inactive) | 10.4 µM (inactive) |
| COc1ccc(C[C@@H](CO)NC2=C(C#N)CCC2)cc1 | 86.7 µM (inactive) | 38.5 µM (inactive) | 40.4 | 56.5 µM (inactive) | 48 µM (inactive) | 28.6 µM (inactive) | 52.4 µM (inactive) | 28.4 µM (inactive) | 36.8 µM (inactive) | 64.4 µM (inactive) | 48.6 µM (inactive) | 74.1 µM (inactive) | > 100 µM (inactive) | 63.8 µM (inactive) | 46 µM (inactive) |  | 38.7 µM (inactive) |  | 26.3 µM (inactive) |
| O=C(COc1ccc2c(=O)cc(-c3ccc(Cl)cc3)oc2c1)N1CCN(c2ccccc2)CC1 | 48.9 µM (inactive) | 55.1 µM (inactive) | > 100 | > 100 µM (inactive) |  |  | > 100 µM (inactive) |  | > 100 µM (inactive) | > 100 µM (inactive) | > 100 µM (inactive) | > 100 µM (inactive) | > 100 µM (inactive) | > 100 µM (inactive) | 1.73 µM (inactive) | > 100 µM (inactive) | 6.56 µM (inactive) |  | > 100 µM (inactive) |
| CC1CN=C(N(C(=O)Nc2ccc(F)c(Cl)c2)c2ccccc2)S1 (stereo not drawn) | 24.2 µM (inactive) | 21.5 µM (inactive) | 22.4 | 27.6 µM (inactive) |  | 18.9 µM (inactive) | 19.2 µM (inactive) | 17.9 µM (inactive) | 34.5 µM (inactive) | 23.9 µM (inactive) |  | 15.1 µM (inactive) | 43.2 µM (inactive) | 25.9 µM (inactive) | 25.8 µM (inactive) | 27.8 µM (inactive) | 16.7 µM (inactive) |  | 41.1 µM (inactive) |
| C/C(=N\Nc1nc2cc(F)ccc2s1)c1ccccn1 | 0.26 µM (active) | < 0.0161 µM (active) | < 0.022 | 0.381 µM (active) | 0.303 µM (active) |  | 0.0352 µM (active) | 0.0274 µM (active) | 0.0284 µM (active) | 0.0194 µM (active) | 1.26 µM (inactive) | 0.294 µM (active) | 0.391 µM (active) |  | 0.0192 µM (active) | 0.0198 µM (active) | 0.0102 µM (active) | < 0.01 µM (active) | 0.0906 µM (active) |
| COc1ccc(/C=C\c2cc(OC)c(OC)c(OC)c2)cc1OC(=O)CCC(=O)O | 0.000655 µM (active) | < 0.0001 µM (active) | < 0.0001 | < 0.0001 µM (active) | < 0.0001 µM (active) | < 0.0001 µM (active) | 0.0119 µM (active) | < 0.0001 µM (active) | < 0.0001 µM (active) | < 0.01 µM (active) |  | < 0.01 µM (active) | < 0.0001 µM (active) | 46.6 µM (inactive) | 1.34 µM (inactive) | 0.000145 µM (active) | < 0.0001 µM (active) | < 0.0001 µM (active) | < 0.01 µM (active) |
| CC(=O)N(CCc1ccccc1)C(C#N)c1ccc(OCCCCCCCCCCOc2ccc(C(C#N)N(CCc3ccccc3)C(C)=O)cc2)cc1 (stereo not drawn) | > 100 µM (inactive) | > 100 µM (inactive) | 99.1 |  | > 100 µM (inactive) | > 100 µM (inactive) | 44.9 µM (inactive) | 24.6 µM (inactive) | > 100 µM (inactive) | 23 µM (inactive) | 22.6 µM (inactive) | > 100 µM (inactive) | 20.5 µM (inactive) | 41.2 µM (inactive) | 62.2 µM (inactive) | 31.6 µM (inactive) | > 100 µM (inactive) |  | 23.3 µM (inactive) |
